These results are taken from patent EP0254593B1, “Preparation and uses of interferon-gamma” (KABUSHIKI KAISHA HAYASHIBARA SEIBUTSU KAGAKU KENKYUJO, priority 1986, dated 1988).

Counter-ions that a name gives are not always drawn.

One assay has as its system HEp-2 cell. Kind of assay: Potentialization of cytostatic activity of chemotherapeutics by HuIFN-gamma in vitro. The format is cell-based, human. The settings on record: 2880 min. As for the experimental part: (§1) An aliquot of RPMI 1640 medium supplemented with 15 v/v % fetal calf serum was added with an HuIFN-gamma prepared by the method in Example B-1(3) to a final concentration of 5, 50 or 500 units/ml, and the mixture was inoculated with a malignant human tumor cell to 5×10^5 cell/ml. The resultant was incubated in 5% CO2 incubator at 37°C for three days. As control, the same amount of an HuIFN-gamma preinactivated by 30-minute incubation at 100°C was added to a fresh preparation of the same culture medium, and the mixture was treated similarly as above. After culture, the viable cell was stained with neutral red in accordance with the method as described in Applied Microbiology, Vol.22, No.4, pp.671-677 (1971). Thereafter, the neutral red was eluted with acidified ethanol, and the number of viable cell was determined with the absorbance of the eluate at 540 nm.
(§2) Cytostatic rate (%) was determined with the following equation: Cytostatic rate (%) = ( 1 -(A)/(B)) × 100 [formula] wherein A designates the number of viable cell in the test system, and B, that in the control.
(§3) One ml aliquots of a nutrient culture medium prepared in accordance with the method in Experiment 2-2(1) was inoculated with 10^6 cells of a human malignant tumor cell, and the mixture was cultured for one day. The resultant culture was added with 50 units of an HuIFN-gamma prepared by the method in Example B-1(3) and/or 0.1 ml of saline containing a chemotherapeutic, and cultured at 37°C for two days. As control, a saline free of HuIFN-gamma and chemotherapeutic was used. After the culture, the cytostatic rate (%) was determined in accordance with the method in Experiment 2-2(1). The concentration of the chemotherapeutics were as follows: nimustine hydrochloride (ACNU), 1.0×10^-6 g/ml; fluorouracil (5-FU), 1.5×10^-8 g/ml; doxorubicin (ADM), 1.0×10^-10 g/ml; mitomycin C (MMC), 2.5×10^-9 g/ml; and vincristine sulfate (VCR), 1.5×10^-10 g/ml.

Another assay concerns HLE. The assay is described as above. The settings on record: 2880 min. It is filed as cell-based, human. As to the method: as §1, §2, §3
A further assay deals with HeLa. The description is as above. It is filed as cell-based, human. To be noted: 2880 min. As to the method: as §1, §2, §3
In the next assay the test system is PC-9. The assay is described as above. To be noted: 2880 min. It is filed as cell-based, human. As to the method: as §1, §2, §3
The test system of assay [1] is human breast cancer tissue. As to the kind of experiment: Cytostatic activity on malignant tumors in vivo (tumor weight). Details: species or system BALB/c nude mice. To be noted: injected once every day for 20 days; dose/kg/day: HuIFN-gamma 50 units, HuIFN-alpha 500 units, TNF 100 units, MMC 1 mg; control 10.8 g. As to the method: BALB/c nude mice were implanted at their dorsal area with a segment of human breast cancer tissue. From the time when the tumors grew to about 200 mm^3, the nude mice were injected once every day with one or more HuIFN-gamma prepared by the method in Example B-1(3), a lymphokine derived from human lymphoblastoid cell, and/or a chemotherapeutic in saline solution over a period of 20 days.
Thereafter, the nude mice were sacrificed, and the tumors were weighed.
As control, saline was injected similarly as above.

The mark [2] stands for this setting: chemotherapeutic with addition (+) of 50 units HuIFN-gamma, two days, same chemotherapeutic concentrations.
Setting [3] is: single agent, two days: HuIFN-gamma 50 units, ACNU 1.0×10^-6, 5-FU 1.5×10^-8, ADM 1.0×10^-10, MMC 2.5×10^-9, VCR 1.5×10^-10 g/ml.

For the compound `Cc1ncc(CNC(=O)N(CCCl)N=O)c(N)n1` [ACNU, nimustine hydrochloride], the “Cytostatic rate (%)” value stood at 54% in the assay with HEp-2 cell (setting [2]); 4% with HEp-2 cell (setting [3]); 63% in the assay on HLE (setting [2]); 5% in the assay on HLE (setting [3]); 72% in the assay on HeLa (setting [2]); 5% in the assay with HeLa (setting [3]). The “Cytostatic rate (%)” value with PC-9 (setting [2]) is 65%; with PC-9 (setting [3]), 2%.
As to `COc1cccc2c1C(=O)c1c(O)c3c(c(O)c1C2=O)C[C@@](O)(C(=O)CO)C[C@@H]3O[C@H]1C[C@H](N)[C@H](O)[C@H](C)O1` [ADM, doxorubicin], the “Cytostatic rate (%)” value in the assay with HEp-2 cell (setting [2]) worked out at 59%; in the assay with HEp-2 cell (setting [3]), 13%; in the assay on HLE (setting [2]) it was 62%; with HLE (setting [3]) it was 7%; in the assay on HeLa (setting [2]), 64%; in the assay with HeLa (setting [3]) it was 17%. Moreover, the results for the “Cytostatic rate (%)” value in the assay on PC-9 (setting [2]) and with PC-9 (setting [3]) were 72% and 6%, respectively.
Turning to `O=c1[nH]cc(F)c(=O)[nH]1` [Example 5-FU, fluorouracil], the “Cytostatic rate (%)” value in the assay with HEp-2 cell (setting [2]) is recorded as 67%; with HEp-2 cell (setting [3]) it was 8%; in the assay on HLE (setting [2]), 71%; in the assay with HLE (setting [3]) it was 8%; in the assay on HeLa (setting [2]), 70%; in the assay on HeLa (setting [3]), 12%. The results for the “Cytostatic rate (%)” value in the assay with PC-9 (setting [2]) and in the assay with PC-9 (setting [3]) were 68% and 10%, respectively.
For the compound `CO[C@@]12[C@H](COC(N)=O)C3=C(C(=O)C(C)=C(N)C3=O)N1C[C@@H]1N[C@@H]12` [MMC, mitomycin C], the “Cytostatic rate (%)” value came out at 61% in the assay on HEp-2 cell (setting [2]); 10% in the assay on HEp-2 cell (setting [3]); 65% in the assay on HLE (setting [2]); 12% in the assay on HLE (setting [3]); 62% with HeLa (setting [2]); 7% with HeLa (setting [3]). The “Cytostatic rate (%)” value in the assay on PC-9 (setting [2]) is 64%; in the assay with PC-9 (setting [3]) it was 5%. Further, in assay [1], the “Tumor” value worked out at 5.1 ± 0.4 g.
Turning to `CC[C@]1(O)C[C@H]2CN(CCc3c([nH]c4ccccc34)[C@@](C(=O)OC)(c3cc4c(cc3OC)N(C=O)[C@H]3[C@@](O)(C(=O)OC)[C@H](OC(C)=O)[C@]5(CC)C=CCN6CC[C@]43[C@@H]65)C2)C1` [VCR, vincristine sulfate], the “Cytostatic rate (%)” value worked out at 58% with HEp-2 cell (setting [2]); 5% in the assay with HEp-2 cell (setting [3]); 58% in the assay with HLE (setting [2]); 10% in the assay on HLE (setting [3]); 65% in the assay on HeLa (setting [2]); 10% in the assay on HeLa (setting [3]). Besides, the “Cytostatic rate (%)” value stood at 66% with PC-9 (setting [2]) and 8% in the assay with PC-9 (setting [3]).
